Reference: patent US20260216368A1, “BIS-ESTER AND AMIDE CATIONIC LIPIDS” (SANOFI PASTEUR INC., priority 2022, published 2026)

Legend:
[1] = DLS size and polydispersity of hEPO mRNA lipid nanoparticles; format: physicochemical; conditions: hEPO mRNA LNP, Cationic Lipid:DMG-PEG2000:Cholesterol:DOPE=40:1.5:28.5:30, N/P ratio 4, Process A
Description: The lipid nanoparticles in the examples of the present invention were formulated using Process A of WO 2018/089801 (see, e.g., Example 1 and FIG. 1 of WO 2018/089801). Process A (“A”) relates to a conventional method of encapsulating mRNA by mixing mRNA with a mixture of lipids, without first pre-forming the lipids into lipid nanoparticles. In an exemplary process, an ethanol lipid solution and an aqueous buffered solution of mRNA were prepared separately. A solution of mixture of lipids (cationic lipid, helper lipids, zwitterionic lipids, PEG lipids etc.) was prepared by dissolving lipids in ethanol. The mRNA solution was prepared by dissolving the mRNA in citrate buffer. Then, these two solutions were mixed using a pump system. In some instances, the two solutions were mixed using a gear pump system. In certain embodiments, the two solutions were mixing using a ‘T’ junction (or “Y” junction). The mixture was then purified by diafiltration with a TFF process. The resultant formulation concentrated and stored at 2-8° C. until further use.
(§1) Lipid nanoparticle formulations of Table 1 were prepared by Process A. More specifically, an ethanolic solution of a mixture of lipids including DMG-PEG-2000, cationic lipid, cholesterol, and phosphatidylethanolamine (DOPE) in a ratio of 1.5:40:28.5:30 were combined with an aqueous buffered solution (1 mM Citrate and 150 mM NaCl) of target mRNA at an acidic pH (4.5) under controlled conditions to yield a dispersion of uniform lipid nanoparticles (LNPs). Upon ultrafiltration and diafiltration into the final buffer, the resulting nanoparticle dispersions were diluted to required concentration using the final buffer (10% Trehalose), sterile filtered and stored frozen at −80° C. until use.
All of the lipid nanoparticle formulations comprised hEPO mRNA and the different lipids in following mol % ratios: Cationic Lipid: DMG-PEG2000; Cholesterol:DOPE=40:1.5:28.5:30.
DLS measurements were performed using a Malvern Instruments Zetasizer with a backscattering detector angle of 173° and a 4-mW, 633-nm He—Ne laser (Worcestershire, UK). The samples were analyzed by diluting in 10% Trehalose and measuring the size and Poly dispersity Index (PDI) in an optical grade polystyrene cuvette.
The following lipid nanoparticles were formulated according to Example 51.
as §1, with “Table 3” for “Table 1”

[2] = RiboGreen assay, % encapsulation of mRNA in lipid nanoparticles; format: physicochemical; conditions: hEPO mRNA LNP, Cationic Lipid:DMG-PEG2000:Cholesterol:DOPE=40:1.5:28.5:30, N/P ratio 4, Process A
Source text: In embodiments, the lipid nanoparticle encapsulates a nucleic acid, optionally an mRNA encoding a peptide or protein. In embodiments, the peptide is an antigen. In embodiments, the lipid nanoparticle encapsulates an mRNA encoding a peptide or protein. As used herein, the phrase “encapsulation percentage” refers to the fraction of therapeutic agent (e.g. mRNA) that is effectively encapsulated within a liposomal-based vehicle (e.g. a lipid nanoparticle) relative to the initial fraction of therapeutic agent present in the lipid phase. In embodiments, the lipid nanoparticles have an encapsulation percentage for mRNA of at least 50%. In embodiments, the lipid nanoparticles have an encapsulation percentage for mRNA of at least 55%. In embodiments, the lipid nanoparticles have an encapsulation percentage for mRNA of at least 60%. In embodiments, the lipid nanoparticles have an encapsulation percentage for mRNA of at least 65%. In embodiments, the lipid nanoparticles have an encapsulation percentage for mRNA of at least 70%. In embodiments, the lipid nanoparticles have an encapsulation percentage for mRNA of at least 75%. In embodiments, the lipid nanoparticles have an encapsulation percentage for mRNA of at least 80%. In embodiments, the lipid nanoparticles have an encapsulation percentage for mRNA of at least 85%. In embodiments, the lipid nanoparticles have an encapsulation percentage for mRNA of at least 90%. In embodiments, the lipid nanoparticles have an encapsulation percentage for mRNA of at least 95%. In embodiments, the encapsulation percentage is calculated by performing the Ribogreen assay (Invitrogen) with and without the presence of 0.1% Triton-X 100.
The RiboGreen Assay is a fluorescence-based method for the determination of mRNA concentration (Total and Free) and % encapsulation using Quant-iT™ RiboGreen® RNA reagent in mRNA containing lipid nanoparticles.
• To each of the standards (Blank, mRNA-1, mRNA-2. mRNA-3, mRNA-4, mRNA-5) and Samples (free mRNA and total mRNA), add 1.0 mL of 200-fold Ribogreen Reagent Solution and gently mix by inversion. This is a 2× Dilution. • Add 200 μL of each standard and sample in triplicate using the reverse pipetting technique in a 96-well Costar Black with Clear Background Plate. Ensure no bubbles are present in the plate before the fluorescence reading. • Read the fluorescence signal using the below instrument parameters: • Read Type: Fluorescence, Bottom Read • Excitation: 485 nm; Cut-off: 515 nm; Emission: 530 nm • Plate Type: 96-well Costar Black with Clear Background
The average fluorescence from each calibration standard is plotted against the concentration to generate a linear calibration curve using the MS Excel software. The coefficient of determination (R^2) of calibration curve must be R^2>0.99.
[formula] • Where, • Y=average fluorescence value • m: slope • x: concentration (pg/mL) • c: y-intercept • Using the linear equation, calculate the concentration of free and total mRNA concentration in the test sample by replacing the y value in the equation with the average fluorescence value of each respective sample • Once the concentration is determined, the actual concentration in the sample can be back-calculated by multiplying the concentration in the test sample with the dilution factor (DF) as follows:
[formula] • Concentration of encapsulated mRNA can be determined by subtracting the concentration of free mRNA from the total mRNA. • % Encapsulation can then be calculated by taking the ratio of encapsulated mRNA over total mRNA and multiplying the result with 100.

[3] = system: Human erythropoietin (hEPO) levels in sera; experiment: Delivery of hEPO mRNA by intramuscular administration of lipid nanoparticles; serum hEPO by ELISA; format: in vivo, Mouse; conditions: for hEPO 6 Hr (ng/mL) Mean / hEPO 24 Hr (ng/mL) Mean: serum, 0.1 μg/animal hEPO mRNA LNP, n=4; for hEPO 6 Hr (ng/mL) Mean: 6 hours post dose; for in vivo hEPO protein production (FIG. 51): intramuscular delivery of hEPO mRNA using lipid nanoparticles comprising the compound, result in words; for hEPO 24 Hr (ng/mL) Mean: 24 hours post dose
Description: WO2022/099003 A1 describes an in vivo assay for intramuscular administration (e.g. on page 46, paragraph [00206]). Further details of the intramuscular experiment performed in this application are provided below.
Treatment Regimen: On Day 1, animals from Groups 1-8 were dosed via intramuscular injection while under light isoflurane anesthesia according to the study design table above. Animals in Groups 2-8 were injected with EPO in the right leg only. Group 1 animals received saline control.
Interim Sample Collections: Interim whole blood (~50 μL) was collected by tail snip or saphenous vein at 6 hours post dose administration (±5%). Blood samples were collected into serum separator tubes, allowed to clot at room temperature for at least 10 minutes, centrifuged at ambient temperature at minimum 1000 g for 10 minutes and the serum was extracted. All serum samples were stored at nominally −70° C. until analysis hEPO by the Testing Facility. The results of the EPO analysis were included in the Data Submission.
Terminal Blood Collections: Whole blood was collected via cardiac puncture into serum separator tube, allowed to clot at room temperature for at least 10 minutes, centrifuged at ambient temperature at minimum 1000 g for 10 minutes and the serum was extracted. Serum samples were stored at nominally −70° C. until analyzed for hEPO by the Test Facility.
ELISA Assay: Human erythropoietin (hEPO) levels in sera samples were determined by ELISA kit (R&D systems, Cat #DEP-00) according to the manufactory instruction and the results were included in the Data Submission. The “shaker” protocol was used. The serum samples were diluted between 1:40 and 1:100.
The ability of the further exemplary lipid nanoparticles in Example 54 to deliver hEPO mRNA by intramuscular administration was tested in accordance with the experimental protocol set out in Example 52.

[4] = single IM injection, female BALB/cJ mice

PDI ([1]; Table 3, further LNPs)	Size (nm) ([1]; Table 3, further LNPs)	Encapsulation Percentage (%) ([2]; Table 3, further LNPs)	PDI ([1]; Table 1)	Size (nm) ([1]; Table 1)	Encapsulation Percentage (%) ([2]; Table 1)	SMILES	hEPO 6 Hr (ng/mL) Mean ([3]; second occasion, IM, mice) [ng/mL]	hEPO 6 Hr (ng/mL) Mean ([3]; first occasion, IM, mice) [ng/mL]	hEPO 6 Hr (ng/mL) Mean ([3]; fourth occasion, IM, mice) [ng/mL]	in vivo hEPO protein production (FIG. 51) [3]	hEPO 6 Hr (ng/mL) Mean [3, 4] [ng/mL]	hEPO 24 Hr (ng/mL) Mean [3, 4] [ng/mL]
–	–	–	0.124	106	78	CCCCCCCCCCC(O)CN(CCCOC(=O)CCC(C)C(=O)OCCCN(CC(O)CCCCCCCCCC)CC(O)CCCCCCCCCC)CC(O)CCCCCCCCCC (stereo not shown) [XXXII]	–	–	–	high levels of in vivo hEPO protein production	17.0	10.3
–	–	–	0.052	134	33	CCCCCC/C=C\COC(=O)CCCCCC(O)CN(CCCOC(=O)CN(C)CC(=O)OCCCN(CC(O)CCCCCC(=O)OC/C=C\CCCCCC)CC(O)CCCCCC(=O)OC/C=C\CCCCCC)CC(O)CCCCCC(=O)OC/C=C\CCCCCC (stereo not shown) [XV]	–	–	–	high levels of in vivo hEPO protein production	31.9	15.1
0.093	108	82	–	–	–	CCCCCCCCCCC(O)CN(CCCOC(=O)[C@H](CCc1ccc(O)cc1)NC(=O)CCCN(CC(O)CCCCCCCCCC)CC(O)CCCCCCCCCC)CC(O)CCCCCCCCCC (stereo partly drawn) [Compound C, 3-[bis(2-hydroxydodecyl)amino]propyl (S)-2-{4-[bis(2-hydroxydodecyl)amino]butyrylamino}-4-(p-hydroxyphenyl)butyrate]	–	–	37.2	–	–	–

Further lines, the compound ahead of its results:

SMILES	PDI ([1]; Table 3, further LNPs)	Size (nm) ([1]; Table 3, further LNPs)	Encapsulation Percentage (%) ([2]; Table 3, further LNPs)	PDI ([1]; Table 1)	Size (nm) ([1]; Table 1)	Encapsulation Percentage (%) ([2]; Table 1)	hEPO 6 Hr (ng/mL) Mean ([3]; second occasion, IM, mice) [ng/mL]	hEPO 6 Hr (ng/mL) Mean ([3]; first occasion, IM, mice) [ng/mL]	hEPO 6 Hr (ng/mL) Mean ([3]; fourth occasion, IM, mice) [ng/mL]	in vivo hEPO protein production (FIG. 51) [3]	hEPO 6 Hr (ng/mL) Mean [3, 4] [ng/mL]	hEPO 24 Hr (ng/mL) Mean [3, 4] [ng/mL]
CCCCCCCCCCC(O)CN(CCCOC(=O)[C@H](Cc1c[nH]c2ccccc12)NC(=O)CCCN(CC(O)CCCCCCCCCC)CC(O)CCCCCCCCCC)CC(O)CCCCCCCCCC (stereo partly drawn) [Compound CI, 3-(bis(2-hydroxydodecyl)amino)propyl (4-(bis(2-hydroxydodecyl)amino)butanoyl)-L-tryptophanate]	0.155	135	85	–	–	–	40.5	–	–	–	–	–
CCCCCCCCCCC(O)CN(CCCNC(=O)CC(C)(C)CC(=O)NCCCN(CC(O)CCCCCCCCCC)CC(O)CCCCCCCCCC)CC(O)CCCCCCCCCC (stereo not shown) [Compound LXXXVII, N,N′-bis({3-[bis(2-hydroxydodecyl)amino]propyl})-3,3-dimethylpentanediamide]	0.111	123	88	–	–	–	–	29.1	–	–	–	–
CCCCCCCCCCC(O)CN(CCCOC(=O)[C@H](Cc1ccccc1)NC(=O)CCCN(CC(O)CCCCCCCCCC)CC(O)CCCCCCCCCC)CC(O)CCCCCCCCCC (stereo partly drawn) [Compound XCV, 3-[bis(2-hydroxydodecyl)amino]propyl (S)-2-{4-[bis(2-hydroxydodecyl)amino]butyrylamino}-3-phenylpropionate]	0.191	94	66	–	–	–	–	–	22.4	–	–	–
